Laboratory results as given in patent US9415108B2, “Compositions for transdermal delivery of active agents” (NeuroDerm, Ltd., priority 2010, dated 2016).
Values belong to the molecule of their own block, whether it stands above or below them.

Tests used:
Assay type in all cases: in vitro ADME
[1] = Transdermal delivery of carbidopa through full thickness pig skin ex vivo, Franz Cell delivery system; settings: for Transdermal delivery of Carbidopa through full thickness pig skin, ex vivo: 24 h, 8.85% carbidopa-arginine salt
Description: The effects of octanol, limonene and/or lauroglycol on the transdermal delivery of carbidopa through full thickness pig skin are evaluated using the Franz Cell delivery system. Formulations containing carbidopa, octanol, limonene, and/or lauroglycol are prepared (formulations 1-8). Samples are collected from the receive cell at 24 and 41 hours after application of the formulation to the skin. The amount of carbidopa compounds in the receiver cell fluid is determined using a spectrophotometer and/or UV-HPLC at 280 nm. […] In Table 1 and FIG. 1, the formulations each contain 14.5% (by weight) carbidopa-arginine salt. In Table 2 the formulations each contain 8.85% (by weight) carbidopa-arginine salt.

[2] = Transdermal delivery of opipramol through full thickness pig skin ex vivo
[3] = as above; remark: listed apart in the source
Description: FIG. 7 depicts the effect of organic acids on the transdermal delivery of opipramol through full thickness pig skin. Formulations containing opipramol, various organic acids (succinic acid, citric acid, lactic acid, ascorbic acid, malic acid, or tartaric acid), octanol, lauroglycol, and/or Klucel® are prepared. Samples are collected from the receive cell at 22 and 46 hours after application of the formulations to the skin. The amount of opipramol compounds in the receiver cell fluid is determined using a spectrophotometer and/or UV-HPLC at 280 nm. FIG. 8 depicts the effects of octanol, limonene and/or lauroglycol on the transdermal delivery of opipramol (5% by weight) through full thickness pig skin.

[4] = inclusion of Klucel hydroxypropyl cellulose in formulation containing octanol and limonene (FIG. 4)

- Transdermal delivery of Carbidopa through full thickness pig skin, ex vivo ([1]; Octanol 0, Limonene 1.5, Oleic Acid 0): 1.0 mg/cm^2
- Transdermal delivery of Carbidopa through full thickness pig skin, ex vivo ([1]; Octanol 0, Limonene 1.5, Oleic Acid 2): 1.0 mg/cm^2
- Transdermal delivery of Carbidopa through full thickness pig skin, ex vivo ([1]; Octanol 4, Limonene 1.5, Oleic Acid 0): 6.4 mg/cm^2
- Effect of the combination of octanol and lauroglycol on delivery of carbidopa through pig skin ([1]; FIG. 1, depends on the octanol:lauroglycol ratio): enhances
- Effect of the combination of octanol and limonene on delivery of carbidopa through pig skin ([1]; FIGS. 1 and 2, Tables 1 and 2): additive and/or synergistic effect
- Effect on lag time of carbidopa penetration through the skin ([1]; addition of lactic acid to formulation containing octanol and limonene (FIG. 3)): reduces
- Effect on lag time of carbidopa penetration [1, 4]: increases
- Effect on rate of carbidopa penetration through the skin [1, 4]: reduces
- Enhancement of penetration of the drug through the skin ([1]; on increasing the amount of carbidopa in the formulation by 50% (FIG. 5)): 25%
Structure (SMILES): C[C@@](Cc1ccc(O)c(O)c1)(NN)C(=O)O [Carbidopa, carbidopa]

- Effect of glutamic acid on opipramol penetration through the skin ([2]; FIG. 9): significantly increases
- Effect of increasing concentration of Klucel on penetration of opipramol through the skin ([2]; FIG. 10): reduces
- Effect of tartaric acid on opipramol penetration through the skin as compared to opipramol base ([2]; FIG. 11): significantly increases
- Tartaric acid compared with hydrochloric acid, opipramol penetration ([2]; FIG. 11): significantly superior
- Transdermal delivery of opipramol at 5% opipramol in the formulation ([2]; FIG. 12, higher concentration): may be inhibited
- Rate of opipramol penetration ([2]; glutamic acid formulation, in the presence of 1% limonene (FIG. 9)): reduced
- Lag time of opipramol penetration through the skin ([2]; glutamic acid formulation, in the presence of 5% water (FIG. 9)): shortened
- Effect of addition of organic acids on transdermal delivery of opipramol ([3]; FIG. 7): significantly increases
- Effect of lactic acid and citric acid on opipramol penetration through the skin ([3]; FIG. 7): minimal effect
- Effect of tartaric acid on opipramol delivery relative to other organic acids ([3]; FIG. 7, followed by ascorbic, succinic and malic acid): highest enhancing effect
- Effect of the combination of octanol and limonene on delivery of opipramol through pig skin ([3]; FIG. 8, opipramol 5% by weight): additive and/or synergistic effect
Structure (SMILES): OCCN1CCN(CCCN2c3ccccc3C=Cc3ccccc32)CC1 [opipramol]
- Opipramol delivery of formulation containing 2.5% (wt) opipramol ([2]; FIG. 12, compared with 1% formulation): delivers more opipramol than the 1% formulation
- Effect of lauroglycol in the formulation on opipramol delivery ([3]; FIG. 8, Table 3): reduces the additive and/or synergistic effect
